Our source for the melting point and logP values is patent publication US7279444B2, “Substituted benzoylpyrazoles” (Bayer CropScience GmbH, priority 1999, dated 2007).

Each structure is given as a SMILES string. Marks after values point to notes of the source that are not given here.

Test in one series: not given
`Cn1c(C(F)(F)F)nn(Cc2c(Cl)ccc(C(=O)O)c2Cl)c1=O` [III-3, 4-methyl-5-trifluoromethyl-2-(2,6-dichloro-3-carboxy-benzyl)-2,4-dihydro-3H-1,2,4-triazol-3-one]: the melting point came to 207 °C. The compound `COC(=O)c1ccc(Cl)c(Cn2nc(C(F)(F)F)n(C)c2=O)c1Cl` [IV-2, 4-methyl-5-trifluoromethyl-2-(2,6-dichloro-3-methoxycarbonyl-benzyl)-2,4-dihydro-3H-1,2,4-triazol-3-one] showed a melting point of 109 °C.

A further series can be described thus: log P by HPLC on reversed-phase column (C 18), acidic range. In kind it is physicochemical. How it is done:
Temperature: 43° C. […] The log P values given in Table 3 were determined in accordance with EEC Directive 79/831 Annex V.A8 by HPLC (High Performance Liquid Chromatography) on a reversed-phase column (C 18). Temperature: 43° C. […] The log P values given in Tables 4 were determined in accordance with EEC Directive 79/831 Annex V.A8 by HPLC (High Performance Liquid Chromatography) on a reversed-phase column (C 18). Temperature: 43° C.
As to `Cc1nn(C)c(O)c1C(=O)c1ccc(Cl)c(CN2CCN(C)C2=O)c1Cl` [ID-51], the logP result is on record as “logP = 1.38^a)”.

Consider `COC(=O)c1ccc(Cl)c(Cn2nc(OC)n(C)c2=O)c1Cl` [IV-6], for which the logP entry is recorded as “logP = 2.04^a)”. On the same count and under the same terms, with `CCn1ncc(C(=O)c2ccc(C(F)(F)F)cc2Cn2nc(SC)n(C)c2=O)c1OC` [ID-30] the entry was “logP = 2.65^a)”; with `CCOC(=O)c1ccc(C(F)(F)F)cc1Cn1nc(COC)n(C2CC2)c1=O` [IV-77], “logP = 2.88^a)”; with `CCn1ncc(C(=O)c2ccc(S(C)(=O)=O)cc2Cn2nc(OCC(F)(F)F)n(C)c2=O)c1O` [Example 68], “logP = 1.73^a)”. For the compound `CCOc1nn(Cc2c(Cl)ccc(C(=O)c3c(C)nn(C)c3O)c2Cl)c(=O)n1C` [Example 52], the logP result was “logP = 1.76^a)”. Consider `CCOC(=O)c1ccc([N+](=O)[O-])cc1Cn1nc(SC)n(C)c1=O` [IV-46], for which the logP result is “logP = 2.82^a)”. `CCn1ncc(C(=O)c2ccc(C(F)(F)F)cc2Cn2nc(SC)n(C)c2=O)c1OCc1ccc(C#N)cc1` [ID-37]: the logP result is listed as “logP =3.06^a)”. Turning to `CCn1ncc(C(=O)c2ccc(C(F)(F)F)cc2Cn2nc(SC)sc2=O)c1O` [ID-7], the logP entry is reported as “logP = 2.98^a)”. Take `CCOC(=O)c1ccc(C(F)(F)F)cc1Cn1nc(COC)n(C)c1=O` [IV-78]: the logP entry is given as “logP = 2.60^a)”.

`COc1nn(Cc2c(Cl)ccc(C(=O)c3cnn(C)c3O)c2Cl)c(=O)n1C` [Example 57]: the logP entry was “logP = 1.48^a)”. On to `CCOC(=O)c1ccc(Br)c(Cn2nc(C)n(C)c2=O)c1` [IV-38], for which the logP entry is reported as “logP = 2.06^a)”.

As for `COC(=O)c1ccc(Cl)c(Cn2nc3n(c2=O)CCCC3)c1Cl` [IV-14], the logP entry is given as “logP = 1.86^a)”. On the same count and under the same terms, with `CCn1ncc(C(=O)c2ccc(F)cc2Cn2nc(N(C)C)n(C)c2=O)c1O` [Example 8] the entry was “logP = 1.61^a)”; with `CCOC(=O)c1ccc(Br)cc1Cn1nc(SC)n(C)c1=O` [IV-80], “logP = 2.86^a)”. For `CCOC(=O)c1ccc(F)c(Cn2nc(Br)n(C)c2=O)c1` [IV-36], the logP result was “logP = 2.41^a)”.

As to `CSc1nn(Cc2c(Cl)ccc(C(=O)c3c(C)nn(C)c3O)c2Cl)c(=O)n1C` [Example 51], the logP entry is “logP = 1.66^a)”.

In the case of `CCN1CCN(Cc2c(Cl)ccc(C(=O)c3c(C)nn(CC)c3O)c2Cl)C1=O` [ID-57], the logP entry is on record as “logP = 1.79^a)”. As to `CCn1ncc(C(=O)c2ccc(C(F)(F)F)cc2Cn2cc(Cl)cc(Cl)c2=O)c1O` [ID-8], the logP entry was “logP = 2.75^a)”. For `CCOC(=O)c1ccc(Br)cc1Cn1nc(OC(C)C)n(C)c1=O` [IV-65], the logP entry is “logP = 3.34^a)”.

Turning to `CCn1ncc(C(=O)c2ccc(Cl)c(Cn3nc(OCC(F)(F)F)n(C)c3=O)c2Cl)c1O` [Example 23], the logP result is given as “logP = 2.33^a)”. Regarding `COC(=O)c1ccc(Cl)c(Cn2nc(OC(C)C)n(C)c2=O)c1Cl` [IV-7], the logP result was “logP = 2.73^a)”. For `CCOc1nn(Cc2cc(C(F)(F)F)ccc2C(=O)c2cnn(CC)c2OC(C)C)c(=O)n1C` [ID-15], the logP entry is reported as “logP = 3.11^a)”. `CCOC(=O)c1ccc(C(F)(F)F)cc1CN1N=C(C)C(C)(C)C1=O` [IV-99]: the logP entry is reported as “logP = 2.91^a)”.

With `CCn1ncc(C(=O)c2ccc(C(F)(F)F)cc2Cn2nc(SC)n(C)c2=O)c1OS(C)(=O)=O` [ID-12], the logP entry is reported as “logP = 2.82^a)”. For `CCOC(=O)c1ccc(Br)cc1Cn1nc(CC)n(OCC)c1=O` [IV-34], the logP result was “logP = 3.24^a)”. Regarding `CCOc1nn(Cc2c(Cl)ccc(C(=O)c3cnn(CC)c3O)c2Cl)c(=O)n1C` [Example 19], the logP result was “logP = 2.01^a)”.

As to `CCOC(=O)c1ccc(F)cc1Cn1nc(OC)n(C2CC2)c1=O` [IV-97], the logP result is “logP = 2.50^a)”. Regarding `CCOc1nn(Cc2ccc(C(=O)c3cnn(CC)c3O)c([N+](=O)[O-])c2OC)c(=O)n1C` [Example 59], the logP result is given as “logP = 1.99^a)”. Regarding `CSc1nn(Cc2c(Cl)ccc(C(=O)c3c(C)nn(C(C)(C)C)c3O)c2Cl)c(=O)n1C` [Example 46], the logP result is recorded as “logP = 3.30^a)”. Same read-out and setting: with `CCOc1nn(Cc2c(Cl)ccc(C(=O)c3c(C)nn(C(C)(C)C)c3O)c2Cl)c(=O)n1C` [Example 47] the entry was “logP = 3.44^a)”; with `CCOc1nn(Cc2cc(C(F)(F)F)ccc2C(=O)c2cnn(CC)c2OS(C)(=O)=O)c(=O)n1C` [ID-11], “logP = 3.25^a)”; with `COC(=O)c1ccc(Cl)c(Cn2nc(OCC(F)(F)F)n(C)c2=O)c1Cl` [IV-8], “logP = 2.72^a)”. As for `CCOC(=O)c1ccc(S(C)(=O)=O)cc1CN1C(=O)CCC1=O` [IV-33], the logP entry is on record as “logP = 1.53^a)”. `CCOc1nn(Cc2cc(C(F)(F)F)ccc2C(=O)c2cnn(CC)c2OCc2cccc(Cl)c2)c(=O)n1C` [ID-24]: the logP entry is on record as “logP = 3.84^a)”. `Cc1nn(C(C)(C)C)c(O)c1C(=O)c1ccc(Cl)c(CN2CCCN(C)C2=O)c1Cl` [ID-6]: the logP result is reported as “logP = 3.01^a)”. Consider `CCn1ncc(C(=O)c2ccc(F)c(Cn3nc(OC)n(C)c3=O)c2Cl)c1O` [Example 71], for which the logP result was “logP = 1.55^a)”. For the compound `CCn1ncc(C(=O)c2ccc(C(F)(F)F)cc2Cn2nc(SC)n(C)c2=O)c1OCc1ccc(C)cc1` [ID-35], the logP result is reported as “logP = 3.71^a)”. As for `Cc1nn(C(C)(C)C)c(O)c1C(=O)c1ccc(Cl)c(Cn2nc(Br)n(C)c2=O)c1Cl` [Example 49], the logP entry is “logP = 3.19^a)”. The same measure, in the same setting: then `CCOC(=O)c1ccc(Br)c(Cn2nc(C(F)(F)F)n(C)c2=O)c1` [IV-40], with “logP = 3.23^a)”; and `CCOC(=O)c1ccc(Br)cc1CN1CCOC1=O` [IV-72], with “logP = 2.36^a)”; and `CCn1ncc(C(=O)c2ccc(Cl)c(Cn3ncn(C)c3=O)c2Cl)c1O` [Example 25], with “logP = 1.28^a)”. For `CCn1ncc(C(=O)c2ccc(Cl)c(Cn3nc(OC)n(C4CC4)c3=O)c2Cl)c1O` [Example 31], the logP result is “(IB)logP = 1.99^a)”. On the same count and under the same terms, with `CCn1ncc(C(=O)c2ccc(C(F)(F)F)cc2Cn2nc(SC)n(C)c2=O)c1OCc1ccc(Cl)cc1` [ID-39] the entry was “logP = 3.78^a)”; with `CCN1CCN(Cc2c(Cl)ccc(C(=O)c3c(C)nn(C)c3O)c2Cl)C1=O` [ID-55], “logP = 1.57^a)”; with `CCN1CCN(Cc2c(Cl)ccc(C(=O)c3cnn(C)c3O)c2Cl)C1=O` [ID-54], “logP = 1.62^a)”. As for `COC(=O)c1ccc(Cl)c(Cn2nc(OC(C)C)n(C3CC3)c2=O)c1Cl` [IV-17], the logP entry was “logP = 3.08^a)”. For `CCn1ncc(C(=O)c2ccc(C(F)(F)F)cc2Cn2nc(SC)n(C)c2=O)c1OCC(=O)c1ccc(C)cc1` [ID-46], the logP result is listed as “logP = 3.47^a)”. In the case of `CCn1ncc(C(=O)c2ccc(C(F)(F)F)cc2Cn2nc(SC)n(C)c2=O)c1OCc1ccccc1` [ID-34], the logP result is given as “logP = 3.37^a)”. Turning to `CCOc1nn(Cc2c(Cl)ccc(C(=O)OC)c2Cl)c(=O)n1C1CC1` [IV-16], the logP entry is recorded as “logP = 2.73^a)”. Consider `CCn1ncc(C(=O)c2ccc(Cl)c(Cn3nc(C4CC4)n(C4CC4)c3=O)c2Cl)c1O` [Example 20], for which the logP result was “(IB)logP = 2.14^a)”. As for `CCOc1nn(Cc2c(Cl)ccc(C(=O)c3cnn(C)c3O)c2Cl)c(=O)n1C` [Example 56], the logP entry is “logP = 1.77^a)”. Still for that read-out and setting: with `CCn1ncc(C(=O)c2ccc(C(F)(F)F)cc2Cn2nc(SC)n(C)c2=O)c1OCc1ccc(Cl)c(Cl)c1` [ID-40] the entry was “logP = 4.17^a)”; with `Cc1nn(C)c(O)c1C(=O)c1ccc(Cl)c(Cn2nc(Br)n(C)c2=O)c1Cl` [Example 39], “logP = 1.52^a)”. Consider `CCOC(=O)c1ccc(C(F)(F)F)cc1Cn1nc(Br)n(C)c1=O` [IV-119], for which the logP entry was “logP = 2.96^a)”.

In the case of `CCn1ncc(C(=O)c2ccc(C(F)(F)F)cc2Cn2nc(SC)n(C)c2=O)c1OCc1ccc(C(F)(F)F)cc1` [ID-43], the logP result is on record as “logP = 3.89^a)”.

One may read the melting point as the temperature of the solid-liquid transition.
